Data published in ChEMBL document CHEMBL3885881, “DrugMatrix”.

Organism: Rattus norvegicus
Experiment: DrugMatrix - Regimen: Daily Repeat
Assay type: toxicity, organism-based, Sprague-Dawley
Parameters: regimen Daily Repeat, gender Male, age 6-8 weeks
Conditions: in vivo, po, route oral GAVAGE, vehicle .5 % CMC; for ABSOLUTE BASOPHIL / ABSOLUTE EOSINOPHIL / ABSOLUTE LYMPHOCYTE / ABSOLUTE MONOCYTE / ABSOLUTE SEGMENTED NEUTROPHIL / BASOPHIL / EOSINOPHIL / ERYTHROCYTE COUNT / HEMATOCRIT / HEMOGLOBIN / LEUKOCYTE COUNT / LYMPHOCYTE / MEAN CORPUSCULAR HEMOGLOBIN / MEAN CORPUSCULAR HEMOGLOBIN CONCENTRATION / MEAN CORPUSCULAR VOLUME / MONOCYTE / NEUTROPHIL / NUCLEATED RED BLOOD CELLS / PLATELET COUNT: tissue Blood; for ALANINE AMINOTRANSFERASE / ALBUMIN / ALKALINE PHOSPHATASE / ASPARTATE AMINOTRANSFERASE / BLOOD UREA NITROGEN / CARBON DIOXIDE / CHLORIDE / CHOLESTEROL / CREATINE PHOSPHOKINASE / CREATININE / GLUCOSE / LACTATE DEHYDROGENASE / LIPASE / PHOSPHORUS / POTASSIUM / SODIUM / TOTAL BILIRUBIN / TOTAL PROTEIN / URIC ACID: tissue Plasma
[1] = 100 mg/kg, 72 h, dose level Low, time 3 day
[2] = 100 mg/kg, 120 h, dose level Low, time 5 day
[3] = 1000 mg/kg, 72 h, dose level High, time 3 day
[4] = 1000 mg/kg, 120 h, dose level High, time 5 day

CC1CN(c2cc3c(cc2F)c(=O)c(C(=O)O)cn3-c2ccc(F)cc2F)CCN1 (configuration not stated) [TEMAFLOXACIN]
ABSOLUTE BASOPHIL [1]: 0 CELLS/uL
ABSOLUTE EOSINOPHIL [1]: 0 CELLS/uL
ABSOLUTE LYMPHOCYTE [1]: 10703 CELLS/uL
ABSOLUTE MONOCYTE [1]: 236.33 CELLS/uL
ABSOLUTE SEGMENTED NEUTROPHIL [1]: 1027.33 CELLS/uL
BASOPHIL [1]: 0%
EOSINOPHIL [1]: 0%
ERYTHROCYTE COUNT [1]: 5.1 x10E6/uL
HEMATOCRIT [1]: 32.03%
HEMOGLOBIN [1]: 12.13 G/DL
LEUKOCYTE COUNT [1]: 11.97 x10E3/uL
LYMPHOCYTE [1]: 88.33%
MEAN CORPUSCULAR HEMOGLOBIN [1]: 23.83 pg
MEAN CORPUSCULAR HEMOGLOBIN CONCENTRATION [1]: 37.93 G/DL
MEAN CORPUSCULAR VOLUME [1]: 62.83 fL
MONOCYTE [1]: 2.33%
NEUTROPHIL [1]: 9.33%
NUCLEATED RED BLOOD CELLS [1]: 0 /100WBC
PLATELET COUNT [1]: 1089.33 x10E3/uL
ALANINE AMINOTRANSFERASE [1]: 64.67 u/L
ALBUMIN [1]: 4.07 G/DL
ALKALINE PHOSPHATASE [1]: 401.33 u/L
ASPARTATE AMINOTRANSFERASE [1]: 92.33 u/L
BLOOD UREA NITROGEN [1]: 15.67 mg/dL
CARBON DIOXIDE [1]: 35 mmol/L
CHLORIDE [1]: 98.67 MEQ/L
CHOLESTEROL [1]: 91 mg/dL
CREATINE PHOSPHOKINASE [1]: 525.67 u/L
CREATININE [1]: 0.24 mg/dL
GLUCOSE [1]: 143 mg/dL
LACTATE DEHYDROGENASE [1]: 134.67 u/L
LIPASE [1]: 9 u/L
PHOSPHORUS [1]: 12.2 mg/dL
POTASSIUM [1]: 5.94 MEQ/L
SODIUM [1]: 143.63 MEQ/L
TOTAL BILIRUBIN [1]: 0.23 mg/dL
TOTAL PROTEIN [1]: 6.3 G/DL
URIC ACID [1]: 0.53 mg/dL
ABSOLUTE BASOPHIL [2]: 0 CELLS/uL
ABSOLUTE EOSINOPHIL [2]: 33 CELLS/uL
ABSOLUTE LYMPHOCYTE [2]: 9070.33 CELLS/uL
ABSOLUTE MONOCYTE [2]: 218.67 CELLS/uL
ABSOLUTE SEGMENTED NEUTROPHIL [2]: 878 CELLS/uL
BASOPHIL [2]: 0%
EOSINOPHIL [2]: 0.33%
ERYTHROCYTE COUNT [2]: 5.56 x10E6/uL
HEMATOCRIT [2]: 33.53%
HEMOGLOBIN [2]: 12.97 G/DL
LEUKOCYTE COUNT [2]: 10.2 x10E3/uL
LYMPHOCYTE [2]: 88.67%
MEAN CORPUSCULAR HEMOGLOBIN [2]: 23.37 pg
MEAN CORPUSCULAR HEMOGLOBIN CONCENTRATION [2]: 38.7 G/DL
MEAN CORPUSCULAR VOLUME [2]: 60.37 fL
MONOCYTE [2]: 2%
NEUTROPHIL [2]: 9%
NUCLEATED RED BLOOD CELLS [2]: 0 /100WBC
PLATELET COUNT [2]: 1110.67 x10E3/uL
ALANINE AMINOTRANSFERASE [2]: 48.67 u/L
ALBUMIN [2]: 4.43 G/DL
ALKALINE PHOSPHATASE [2]: 449.67 u/L
ASPARTATE AMINOTRANSFERASE [2]: 74.33 u/L
BLOOD UREA NITROGEN [2]: 15.33 mg/dL
CARBON DIOXIDE [2]: 37 mmol/L
CHLORIDE [2]: 98 MEQ/L
CHOLESTEROL [2]: 89.67 mg/dL
CREATINE PHOSPHOKINASE [2]: 298.67 u/L
CREATININE [2]: 0.34 mg/dL
GLUCOSE [2]: 138.67 mg/dL
LACTATE DEHYDROGENASE [2]: 126 u/L
LIPASE [2]: 7.67 u/L
PHOSPHORUS [2]: 12.27 mg/dL
POTASSIUM [2]: 5.95 MEQ/L
SODIUM [2]: 144.33 MEQ/L
TOTAL BILIRUBIN [2]: 0.23 mg/dL
TOTAL PROTEIN [2]: 6.37 G/DL
URIC ACID [2]: 0.8 mg/dL
ABSOLUTE BASOPHIL [3]: 0 CELLS/uL
ABSOLUTE EOSINOPHIL [3]: 0 CELLS/uL
ABSOLUTE LYMPHOCYTE [3]: 8968.67 CELLS/uL
ABSOLUTE MONOCYTE [3]: 91.33 CELLS/uL
ABSOLUTE SEGMENTED NEUTROPHIL [3]: 740 CELLS/uL
BASOPHIL [3]: 0%
EOSINOPHIL [3]: 0%
ERYTHROCYTE COUNT [3]: 5.3 x10E6/uL
HEMATOCRIT [3]: 32.17%
HEMOGLOBIN [3]: 12.37 G/DL
LEUKOCYTE COUNT [3]: 9.8 x10E3/uL
LYMPHOCYTE [3]: 91.33%
MEAN CORPUSCULAR HEMOGLOBIN [3]: 23.43 pg
MEAN CORPUSCULAR HEMOGLOBIN CONCENTRATION [3]: 38.47 G/DL
MEAN CORPUSCULAR VOLUME [3]: 60.8 fL
MONOCYTE [3]: 1%
NEUTROPHIL [3]: 7.67%
NUCLEATED RED BLOOD CELLS [3]: 0 /100WBC
PLATELET COUNT [3]: 1214 x10E3/uL
ALANINE AMINOTRANSFERASE [3]: 59 u/L
ALBUMIN [3]: 3.67 G/DL
ALKALINE PHOSPHATASE [3]: 384 u/L
ASPARTATE AMINOTRANSFERASE [3]: 87 u/L
BLOOD UREA NITROGEN [3]: 13 mg/dL
CARBON DIOXIDE [3]: 35.33 mmol/L
CHLORIDE [3]: 99 MEQ/L
CHOLESTEROL [3]: 84.33 mg/dL
CREATINE PHOSPHOKINASE [3]: 684.67 u/L
CREATININE [3]: 0.26 mg/dL
GLUCOSE [3]: 138.33 mg/dL
LACTATE DEHYDROGENASE [3]: 131 u/L
LIPASE [3]: 9 u/L
PHOSPHORUS [3]: 11.53 mg/dL
POTASSIUM [3]: 5.74 MEQ/L
SODIUM [3]: 143.93 MEQ/L
TOTAL BILIRUBIN [3]: 0.2 mg/dL
TOTAL PROTEIN [3]: 5.97 G/DL
URIC ACID [3]: 0.37 mg/dL
ABSOLUTE BASOPHIL [4]: 0 CELLS/uL
ABSOLUTE EOSINOPHIL [4]: 32 CELLS/uL
ABSOLUTE LYMPHOCYTE [4]: 12898.67 CELLS/uL
ABSOLUTE MONOCYTE [4]: 145 CELLS/uL
ABSOLUTE SEGMENTED NEUTROPHIL [4]: 424.33 CELLS/uL
BASOPHIL [4]: 0%
EOSINOPHIL [4]: 0.33%
ERYTHROCYTE COUNT [4]: 5.35 x10E6/uL
HEMATOCRIT [4]: 31.83%
HEMOGLOBIN [4]: 12.7 G/DL
LEUKOCYTE COUNT [4]: 13.5 x10E3/uL
LYMPHOCYTE [4]: 95.33%
MEAN CORPUSCULAR HEMOGLOBIN [4]: 23.77 pg
MEAN CORPUSCULAR HEMOGLOBIN CONCENTRATION [4]: 39.9 G/DL
MEAN CORPUSCULAR VOLUME [4]: 59.53 fL
MONOCYTE [4]: 1%
NEUTROPHIL [4]: 3.33%
NUCLEATED RED BLOOD CELLS [4]: 0 /100WBC
PLATELET COUNT [4]: 1130.67 x10E3/uL
ALANINE AMINOTRANSFERASE [4]: 52.33 u/L
ALBUMIN [4]: 3.8 G/DL
ALKALINE PHOSPHATASE [4]: 253 u/L
ASPARTATE AMINOTRANSFERASE [4]: 80.33 u/L
BLOOD UREA NITROGEN [4]: 13.67 mg/dL
CARBON DIOXIDE [4]: 33.33 mmol/L
CHLORIDE [4]: 100.33 MEQ/L
CHOLESTEROL [4]: 76.67 mg/dL
CREATINE PHOSPHOKINASE [4]: 375.67 u/L
CREATININE [4]: 0.32 mg/dL
GLUCOSE [4]: 145 mg/dL
LACTATE DEHYDROGENASE [4]: 188.33 u/L
LIPASE [4]: 8.33 u/L
PHOSPHORUS [4]: 11.47 mg/dL
POTASSIUM [4]: 5.93 MEQ/L
SODIUM [4]: 145.13 MEQ/L
TOTAL BILIRUBIN [4]: 0.2 mg/dL
TOTAL PROTEIN [4]: 5.77 G/DL
URIC ACID [4]: 0.83 mg/dL
